Columns and labels:
Format in all cases: cell-based
bacterial strain SK-3 [1] = assay: Growth substrate tests in liquid medium; conditions: initial concentration 100 parts per million, except chlorobenzoate 2-3 millimolar
Description: (§1) The ability of the four isolated strains to grow on selected polychlorobiphenyls as a sole carbon source was assessed.
(§2) (All tests were conducted in a liquid medium. The initial concentration of the organic substrate was 100 parts per million, except chlorobenzoate, which was 2-3 millimolar).

bacterial strain SK-4 [2] = assay: Growth substrate tests in liquid medium; conditions: initial concentration 100 parts per million, except chlorobenzoate 2-3 millimolar
Description: as §1, §2

bacterial strain SK-1 [3] = assay: Growth substrate tests in liquid medium; conditions: initial concentration 100 parts per million, except chlorobenzoate 2-3 millimolar
Description: as §1, §2

bacterial strain SK-2 = assay: Growth substrate tests in liquid medium; conditions: initial concentration 100 parts per million, except chlorobenzoate 2-3 millimolar
Description: as §1, §2

bacterial strain SK-3 [4] = assay: Characterization of SK-3: growth on and degradation of chlorobiphenyls and chlorobenzoates; conditions: for Chloride and chlorobenzoic acid (CBA) formed on degradation by SK-3: 88 hours, 23° C., aerobic, shaker table
Description: (§3) The concentrations of chlorobenzoates and dichlorobiphenyls were assessed after hexane extraction of bottles using gas chromatography analysis of the extracts with an electron capture detector. Chlorobenzoates were analyzed using standard columns after derivitization with pentafluorobenzyl bromide. Dichlorobiphenyls were analyzed using a DB-5 column (J&W Scientific, Fulsom, Calif.).
The results from this experiment are depicted in FIG. 5.
The growth of SK-3 on 4-chlorobiphenyl (4-CB) was compared with growth on its non-chlorinated form, biphenyl. […] The results from this experiment are depicted in FIG. 6. The concentration of chloride ion was determined using ion chromatography on a standard Dionex ion chromatography column. The concentration of 4-CB was assessed after hexane extraction of bottles by analyzing the hexane extracts using gas chromatography on a DB-5 column (J&W Scientific, Fulsom, Calif.) and an electron capture detector.
The growth of SK-3 on chlorobenzoates was assessed. […] The results from this experiment are depicted in FIG. 7.
The degradation of three different monochlorobiphenyls, (2-CB, 3-CB, and 4-CB) by SK-3 was assessed at 23° C. under aerobic conditions on a shaker table. After incubation of SK-3 with the selected monochlorobiphenyl for 88 hours, the concentrations of chloride and the corresponding chlorobenzoic acids (CBA) was assessed as described herein. The results from this experiment are depicted in FIG. 8.
The growth of SK-3 on dichloro-biphenyls was also assessed. […] The results of this experiment are depicted in FIG. 9.

[5] = system: consortia of bacterial strains from PCB-contaminated tertiary lagoon sludge; assay: Degradation of selected PCB congeners in aerobic enrichment cultures; conditions: 100 ppm (w/v) mixture of five PCB congeners, with or without biphenyl cosubstrate; hexane extraction 45 days after inoculation, GC
Excerpt: A consortia of bacterial strains was isolated from tertiary lagoon sludge that was contaminated with PCBs for over twenty five years. The sludge was collected from the Winston-Thomas sewage treatment plant in Bloomington, Ind. PCB-degrading strains were enriched using a minimal medium comprising a 100 ppm (w/v) mixture of the following five PCB congeners as the carbon source: 2,3-dichlorobiphenyl (DCBP), 2,4,4′-trichlorobiphenyl (TCBP), 2,4,6-trichlorobiphenyl, 2,2′,5,5′-tetrachlorobiphenyl, and 2,2′,4,4′,5,5′-hexachlorobiphenyl. Biphenyl was also added to the medium in some samples as an additional carbon source to stimulate the cometabolism of biphenyl and the PCBs. About 30-35 milliliters of the medium was inoculated with 5-10 milliliters of PCB-contaminated sludge and incubated in 160-mL serum bottles sealed with Teflon-coated stoppers. The bottles were incubated horizontally on a shaker table at room temperature. The headspace in the bottles was purged with air once a week to maintain aerobic conditions. Every 4-6 weeks, 10% of the culture was transferred to fresh medium. […] The concentrations of the PCB congeners were determined by extracting bottles with hexane 45 days after inoculation (a single bottle extraction), and analyzing hexane extracts by gas chromatography using a DB-5 column (J&W Scientific, Folsum, Calif.) and an electron capture detector. The results from this analysis are depicted in FIG. 1.

bacterial strain SK-1 [6] = assay: Growth of SK-1 on 2,3-DCBP as sole carbon source and its degradation
Description: Growth of bacterial strains SK-1 and SK-2 on 2,3-DCBP and 3,4-DCBP, respectively, as a sole carbon source was determined using direct counting and an acridine orange staining method. This method involves filtering 0.1 milliliters of culture through a 0.45 micron filter, staining the cells on the filter using a 0.01% acridine orange solution for 3 to 5 minutes, and counting cells on the filter using an epifluorescent microscope at a 1000′ magnification. SK-1+ contained 2,3-dichlorobiphenyl; SK-2+ contained 3,4-dichlorobiphenyl. Control bottles in each case were identical to experimental bottles in that they were inoculated with the cultures but they lacked the appropriate congener. The initial concentration of PCBs was 500 ppm (w/v). The cell numbers of the two isolates increased by 1.5 orders of magnitude in the presence of the DCBPs used as a growth substrate. The degradation of 2,3-DCBP by SK-1 and production of 2,3-dichlorobenzoate is depicted in FIG. 3. The degradation of 3,4-DCBP by SK-2 and production of 3,4-dichlorobenzoate is depicted in FIG. 4.
as §3
The data shown in FIGS. 2, 3 and 4 illustrates the nearly complete disappearance of both 2,3-DCBP (0.38 mM initial concentration, FIG. 3) and 3,4-DCBP (0.3 mM initial concentration, FIG. 4) within 10 days of incubation. Duplicate bottles were used and error bars of the pictures represent a standard deviation. Controls contained DCBPs but lacked inoculum. DCBPs were supplied in the bottles using the non-biodegradable carrier heptamethylnonane (HMN).

bacterial strain SK-4 [7] = assay: Characterization of SK-4: growth on and degradation of 2,2′-DCBP and 2,4′-DCBP; conditions: 1.5×10^7 cells per milliliter
Description: The same methods for determining concentrations of analytes and for the incubation of the bacterial strain with growth substrate described herein for the previous analyses were used in the experiments to characterize SK-4. The concentration of SK-4 cells in the experiments was 1.5×10^7 cells per milliliter and the concentration of 2,2′-DCBP or 2,4′-DCBP was 100 milligrams per liter. […] Ortho-substituted congeners are common degradation products of anaerobic reductive dechlorination of more highly chlorinated PCBs (PCBs comprising more than two chlorine atoms) by anaerobic bacteria.
2,2′-DCBP was supplied at a concentration of 100 milligrams per liter dissolved in heptamethyl nonane (HMN), a non-biodegradable PCB solvent. Controls contained HMN but lacked 2,2′-DCBP.

[8] = substrate in heptamethyl nonane

Molecule | Growth of SK-3 on the substrate as sole carbon source (bacterial strain SK-3 [1]) | Growth of SK-4 on the substrate as sole carbon source (bacterial strain SK-4 [2]) | Growth of SK-1 on the substrate as sole carbon source (bacterial strain SK-1 [3]) | Growth of SK-2 on the substrate as sole carbon source (bacterial strain SK-2) | also measured
O=C(O)c1ccccc1 [Benzoate] | Yes | Yes | Yes | Yes | 
O=C(O)c1cccc(Cl)c1 [3-chlorobenzoate] | No | No | No | No | 
Clc1ccc(Cl)c(-c2ccccc2)c1 [2,5-DCBP] | No | No | Likely | No | 
Clc1ccccc1-c1cccc(Cl)c1Cl [2,2′,3-TCBP] | No | No | No | No | 
Clc1cc(Cl)cc(-c2ccccc2)c1 [3,5-DCBP] | No | No | No | No | 
Clc1cccc(-c2ccccc2)c1 [3-chlorobiphenyl] | Yes | Yes | Yes | Yes | Chloride and chlorobenzoic acid (CBA) formed on degradation by SK-3 (bacterial strain SK-3 [4]): transformed 3-CB to 3-CBA without producing chloride
O=C(O)c1ccccc1Cl [2-chlorobenzoate] | No | No | No | No | 
Clc1ccc(-c2ccccc2)cc1 [4-chlorobiphenyl] | Yes | Yes | Yes | Yes | Chloride and chlorobenzoic acid (CBA) formed on degradation by SK-3 (bacterial strain SK-3 [4]): did not generate 4-CBA; Release of chloride during degradation by SK-3 (bacterial strain SK-3 [4]; chloride by ion chromatography): stoichiometric production of chloride
Clc1ccc(-c2ccc(Cl)cc2Cl)cc1 [2,4,4′-TCBP, 2,4,4′-trichlorobiphenyl] |  |  |  |  | Degradation of PCB congener in aerobic enrichment cultures [5]: degraded only in the bottles which contained biphenyl as a cosubstrate
Oc1ccccc1 [Phenol] | Yes | Yes | Yes | No | 
c1ccc2ccccc2c1 [Naphthalene] | No | No | No | No | 
Clc1cccc(-c2cccc(Cl)c2)c1 [3,3′-DCBP] | No | No |  |  | 
O=C(O)c1cccc(Cl)c1Cl [2,3-dichlorobenzoate] | No | No | No | No | Production of chlorobenzoate from 2,3-DCBP by SK-1 (bacterial strain SK-1 [6]; 0.38 mM 2,3-DCBP initial concentration): almost stoichiometric
c1ccc(-c2ccccc2)cc1 [Biphenyl] | Yes | Yes | Yes | Yes | 
Clc1ccccc1-c1ccccc1 [2-chlorobiphenyl] | Yes | Yes | Yes | Yes | Chloride and chlorobenzoic acid (CBA) formed on degradation by SK-3 (bacterial strain SK-3 [4]): partial release of chloride and production of 2-CBA
Clc1cccc(-c2ccccc2)c1Cl [2,3-DCBP, 2,3-dichlorobiphenyl] | No | No | exhibited growth and Yes | No | Degradation of PCB congener in aerobic enrichment cultures [5]: degraded in bottles which lacked a cometabolic substrate; Time to nearly complete disappearance (bacterial strain SK-1 [6]; SK-1, 0.38 mM initial concentration, supplied in heptamethylnonane): ≤ 10 days; Increase of cell numbers in the presence of the DCBP as growth substrate (bacterial strain SK-1 [6]; SK-1, initial concentration 500 ppm (w/v), acridine orange direct counting): 1.5 orders of magnitude
Clc1ccc(Cl)c(-c2ccccc2Cl)c1 [2,2′,5-TCBP] |  | No |  |  | 
2,3,4-trichlorobenzoate | No |  | No | No | 
O=C(O)CCl [Chloroacetate] | Yes | Yes | Yes | No | 
Clc1cc(Cl)c(-c2ccccc2)c(Cl)c1 [2,4,6-TCBP, 2,4,6-trichlorobiphenyl] |  |  |  |  | Degradation of PCB congener in aerobic enrichment cultures [5]: degraded only in the bottles which contained biphenyl as a cosubstrate
Clc1ccc(-c2ccccc2Cl)cc1Cl [2′,3,4-TCBP] | No | No | No | No | 
Clc1ccc(-c2ccc(Cl)cc2)cc1 [4,4′-DCBP] | No | No |  |  | 
Clc1ccccc1-c1ccccc1Cl [2,2′-DCBP, 2,2′-dichlorobiphenyl] | No | exhibited growth and Yes | No | No | Growth of SK-4 on the substrate as sole carbon source (bacterial strain SK-4 [7]; 100 milligrams per liter): growth; Chloride release on degradation by SK-4 (bacterial strain SK-4 [7]; [8]): stoichiometric release of chloride; Chlorobenzoate production on degradation by SK-4 (bacterial strain SK-4 [7]; [8]): completely transformed into 2-CBA
